Data on four compounds can be found in ChEMBL document CHEMBL4049385 (Bioorg Med Chem Lett, 2017).

pEC50: −log10 of the molar value. Activity calls are given as the source filed them. No cut-off for these calls is given here.

Data set [1] concerns the target T1, Oxysterols receptor LXR-alpha (Homo sapiens) (UniProt Q13133).
T1 sequence (whole entry): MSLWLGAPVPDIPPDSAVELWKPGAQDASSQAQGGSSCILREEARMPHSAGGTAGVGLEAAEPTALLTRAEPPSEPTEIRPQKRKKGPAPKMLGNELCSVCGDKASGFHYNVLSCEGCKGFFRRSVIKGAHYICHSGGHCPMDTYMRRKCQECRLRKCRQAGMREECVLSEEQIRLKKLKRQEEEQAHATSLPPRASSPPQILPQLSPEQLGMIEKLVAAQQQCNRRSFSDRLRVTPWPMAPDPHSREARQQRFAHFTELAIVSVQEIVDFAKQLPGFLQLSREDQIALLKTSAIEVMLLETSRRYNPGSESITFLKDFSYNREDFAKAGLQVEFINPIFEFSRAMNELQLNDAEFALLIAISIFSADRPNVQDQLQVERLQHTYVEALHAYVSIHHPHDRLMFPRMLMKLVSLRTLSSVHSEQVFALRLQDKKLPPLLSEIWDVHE
Nature of the data set: Agonist activity at recombinant human GAL4-DBD-fused LXRalpha-LBD expressed in HEK293T cells at 10 to 20 uM in presence of RXR-antagonist HX531 measured after 12 to 14 hrs by dual-glo luciferase reporter gene assay. The format is cell-based. To be noted: HEK-293T. (A reporter such as luciferase makes a cellular process visible.)

Data set [2] concerns the target T1, Oxysterols receptor LXR-alpha (Homo sapiens). Briefly: Partial agonist activity at recombinant human GAL4-DBD-fused LXRalpha-LBD expressed in HEK293T cells at 10 uM measured after 12 to 14 hrs by dual-glo luciferase reporter gene assay relative to T0901317. Conditions: HEK-293T. Format: cell-based.
Data set [3] deals with HEK-293T. Nature of the data set: Effect on recombinant firefly luciferase activity expressed in HEK293T cells at 10 uM after 12 to 14 hrs by luminescence assay. The format is ADME, cell-based. Conditions: human.
In data set [4] the target is T2, Oxysterols receptor LXR-beta (Homo sapiens, UniProt P55055).
T2 sequence (P55055 whole entry): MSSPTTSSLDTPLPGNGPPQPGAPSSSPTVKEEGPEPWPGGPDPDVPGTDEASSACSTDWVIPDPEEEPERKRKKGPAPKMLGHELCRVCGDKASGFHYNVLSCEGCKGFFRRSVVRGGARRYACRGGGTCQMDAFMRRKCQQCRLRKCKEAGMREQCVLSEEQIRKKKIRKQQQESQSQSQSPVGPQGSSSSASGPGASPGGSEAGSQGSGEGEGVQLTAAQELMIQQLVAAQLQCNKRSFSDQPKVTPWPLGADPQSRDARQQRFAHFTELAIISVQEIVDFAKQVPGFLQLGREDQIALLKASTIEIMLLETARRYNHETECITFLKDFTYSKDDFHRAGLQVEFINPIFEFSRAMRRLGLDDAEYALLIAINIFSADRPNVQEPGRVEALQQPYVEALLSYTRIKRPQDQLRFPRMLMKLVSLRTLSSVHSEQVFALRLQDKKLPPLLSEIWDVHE
Nature of the data set: Partial agonist activity at recombinant human GAL4-DBD-fused LXRbeta-LBD expressed in HEK293T cells measured after 12 to 14 hrs by dual-glo luciferase reporter gene assay. Format: cell-based, HEK-293T.

In data set [5] the target is T1, Oxysterols receptor LXR-alpha (Homo sapiens). Nature of the data set: Partial antagonist activity at recombinant human GAL4-DBD-fused LXRalpha-LBD expressed in HEK293T cells assessed as inhibition of GW3965-induced receptor activation at 10 uM after 12 to 14 hrs by dual-glo luciferase reporter gene assay. Conditions: HEK-293T. The format is cell-based.
Data set [6] shares this target. Nature of the data set: Partial antagonist activity at recombinant human GAL4-DBD-fused LXRalpha-LBD expressed in HEK293T cells assessed as inhibition of WAY252623-induced receptor activation at 10 uM after 12 to 14 hrs by dual-glo luciferase reporter gene assay. Format: cell-based. To be noted: HEK-293T.
Data set [7] shares this target. Nature of the data set: Agonist activity at recombinant human GAL4-DBD-fused LXRalpha-LBD expressed in HEK293T cells at 10 uM in presence of LXR-agonist 22(R)-hydroxycholesterol measured after 12 to 14 hrs by dual-glo luciferase reporter gene assay. The format is cell-based. To be noted: HEK-293T.
Data set [8] in a line: Cmax in chronic hand eczema patient at 30 mg, po administered once daily for 24 weeks. The format is ADME, organism-based. The arrangement: dose 30 mg, route oral. To be noted: human, in vivo.
Data set [9] deals with Homo sapiens. Briefly: Toxicity in chronic hand eczema patient assessed as increase in serum cholesterol level at 30 mg, po administered once daily for 24 weeks relative to control. The format is organism-based. To be noted: in vivo, 4032 h.
The test system of data set [10] is Homo sapiens. Nature of the data set: Toxicity in chronic hand eczema patient assessed as increase in triglyceride level at 30 mg, po administered once daily for 24 weeks relative to control. Format: organism-based. To be noted: in vivo, 4032 h.
In data set [11] the target is T3, Oxysterols receptor LXR-beta (Homo sapiens) (UniProt P55055).
T3 sequence (whole entry): T2 sequence (P55055 whole entry)
Nature of the data set: Partial agonist activity at recombinant human GAL4-DBD-fused LXRbeta-LBD expressed in HEK293T cells at 10 uM measured after 12 to 14 hrs by dual-glo luciferase reporter gene assay relative to T0901317. Format: cell-based. Conditions: HEK-293T.

For data set [12], the target named is T1, Oxysterols receptor LXR-alpha (Homo sapiens). Nature of the data set: Agonist activity at recombinant human GAL4-DBD-fused LXRalpha-LBD expressed in HEK293T cells at 10 uM in presence of RXR-antagonist HX531 measured after 12 to 14 hrs by dual-glo luciferase reporter gene assay. The format is cell-based. To be noted: HEK-293T.
In data set [13] the target is T4, Oxysterols receptor LXR-alpha (Homo sapiens, UniProt Q13133).
T4 sequence (Q13133 whole entry): T1 sequence (whole entry)
Briefly: Partial agonist activity at recombinant human GAL4-DBD-fused LXRalpha-LBD expressed in HEK293T cells measured after 12 to 14 hrs by dual-glo luciferase reporter gene assay. Format: cell-based, HEK-293T.

The target in data set [14] is T1, Oxysterols receptor LXR-alpha (Homo sapiens). Nature of the data set: Agonist activity at recombinant human GAL4-DBD-fused LXRalpha-LBD expressed in HEK293T cells at 1 uM in presence of LXR-agonist 22(R)-hydroxycholesterol measured after 12 to 14 hrs by dual-glo luciferase reporter gene assay. Format: cell-based. Conditions: HEK-293T.
Data set [15] can be described thus: Cmax in patient with solid tumor at 300 mg/m2, po administered once daily. Format: ADME, organism-based. On the set-up: route oral. To be noted: human, in vivo.
Data set [16] concerns HEK-293T. Briefly: Effect on recombinant firefly luciferase activity expressed in HEK293T cells at 1 uM after 12 to 14 hrs by luminescence assay. The format is ADME, cell-based. To be noted: human.
The target of data set [17] is T1, Oxysterols receptor LXR-alpha (Homo sapiens). Nature of the data set: Partial antagonist activity at recombinant human GAL4-DBD-fused LXRalpha-LBD expressed in HEK293T cells assessed as inhibition of GW3965-induced receptor activation at 1 uM measured after 12 to 14 hrs by dual-glo luciferase reporter gene assay. The format is cell-based. To be noted: HEK-293T.

For data set [18] the target is unchanged. Briefly: Partial antagonist activity at recombinant human GAL4-DBD-fused LXRalpha-LBD expressed in HEK293T cells assessed as inhibition of WAY252623-induced receptor activation at 1 uM measured after 12 to 14 hrs by dual-glo luciferase reporter gene assay. The format is cell-based. Conditions: HEK-293T.

As to `CC(C)CC[C@@H](O)[C@@H](C)[C@H]1CC[C@H]2[C@@H]3CC=C4C[C@@H](O)CC[C@]4(C)[C@H]3CC[C@]12C`, the result in data set [1] was Active.

Broadly, the pEC50 is the EC50 on a negative log10 scale, so that one unit is a factor of ten. Broadly, the Cmax is the maximum level reached in the sampled fluid or tissue. For the compound `CC1=C(/C=C/C(C)=C\C=C\C(C)=C\C(=O)O)C(C)(C)CCC1` [ALITRETINOIN], the fold change (FC) in data set [2] came out at 1.39; in data set [11], 1.68. Also, the figures for the Activity result in the data set on HEK-293T [3], in the data set on Homo sapiens [9] and with Homo sapiens [10] were “Non-Toxic”, 14% and 8%, respectively. Besides, the pEC50 in data set [4] is 5.76. Also, the inhibition result in [5] and in data set [6] was “Active” each time. Besides, the outcome in [7] and in data set [12] was Active. Also, the Cmax in data set [8] was determined as 810 nM.

`C=C(c1ccc(C(=O)O)cc1)c1cc2c(cc1C)C(C)(C)CCC2(C)C` [BEXAROTENE]: the figures for the fold change (FC) in [2] and in data set [11] were 1.82 and 2.23, respectively. Also, the figures for the pEC50 in data set [13] and in data set [4] were 6.71 and 6.36, respectively. For the same compound, in data set [14], the outcome was Active. The same compound came in with a Cmax in data set [15] of 3390 nM. Also, the Activity result with HEK-293T [16] is “Non-Toxic”. Besides, the inhibition result in [17] and in data set [18] was “Active” in each case.

On to `Fc1ccc(-c2c3cccc(C(F)(F)F)c3nn2Cc2ccc(F)cc2Cl)cc1` [LXR-623], for which the pEC50 was 5.84 in data set [13] and 6.05 in data set [4].
